Tests used:
BBZDR/Wor rats [1] = experiment: Environmental induction of diabetes in BBZDR/Wor rats (during initial development of the strain); assay type: in vivo, rat
Experimental: (§1) During the initial development of the BBZDR/Wor strain, we performed several experiments to determine whether BBZDR/Wor animals are susceptible to other environmental triggers of diabetes. […] Lean and obese BBZDR/Wor rats were treated with either the TLR3 ligand, poly I:C, or poly I:C and KRV and the incidence of diabetes was determined. […] In contrast, 35-64% of animals treated with poly I:C+KRV became diabetic. We consistently observed a higher incidence of diabetes among lean BBZDR/Wor animals as compared to obese rats. More experiments will need to be performed to determine whether these differences are statistically significant. We recently revisited the poly I:C experiments in the now, fully-inbred (>40 generations) BBZDR/Wor rat line. […] In contrast to our previous results, we observed that 40% of the lean animals and 50% of the obese females developed hyperglycemia.

BBZDR/Wor rats [2] = experiment: Preliminary poly I:C experiment in fully-inbred BBZDR/Wor rat line, onset of diabetes; assay type: in vivo; conditions: fully-inbred (>40 generations) line, 5 μg/gm body weight, 3× a week
Experimental: as §1

BBDR/Wor rats = conditions: cited from earlier work
[3] = test system: dorsal root explants and cultured neurons; conditions: application to dorsal root explants and cultured neurons; cited from earlier work

Substance: polyinosine:polycytidylic acid [Poly I:C]
- % Diabetic With Treatment (BBZDR/Wor rats [1]; Lean BBZDR/Wor rats): 0%
- incidence of diabetes (BBZDR/Wor rats [1]; Lean and obese BBZDR/Wor rats together): no animals treated with poly I:C alone developed diabetes
- % Diabetic With Treatment (BBZDR/Wor rats [1]; Obese BBZDR/Wor rats): 0%
- animals that developed hyperglycemia (BBZDR/Wor rats [2]; lean female animals): 40%
- animals that developed hyperglycemia (BBZDR/Wor rats [2]; obese females): 50%
- induction of hyperglycemia (BBDR/Wor rats; low doses, poly I:C alone): do not induce hyperglycemia
- incidence of diabetes (BBDR/Wor rats; poly I:C given just prior to KRV infection): ~100%
- effect on axonal outgrowth [3]: inhibits axonal outgrowth
